Source: paper PMC12914960, “Repurposing a detrimental antibody epitope as targeted therapeutics for sepsis and rheumatoid arthritis” (Military Medical Research, 2026)
Where a SMILES comes first, the peptide text is derived from it.

Key:
[1] = tested on: CAIA in BALB/c mice; assay: Arthritis severity score, collagen antibody-induced arthritis (CAIA); type: in vivo, mouse
Description: The CAIA model was established in BALB/c mice (8–10 weeks old) as described previously. On Day 0, the mice received an i.p. injection of 2 mg of anti-collagen II mAb cocktail (α-CII, Chondrex, Inc., Redmond, WA, USA). On Day 3, the mice received an i.p. injection of 30 µg of LPS [Escherichia coli (E. coli) O111:B4; Sigma-Aldrich, St. Louis, MO, USA] to activate inflammation and synchronize arthritis onset. The mice were randomized to the control vehicle (n = 5 or n = 7–10) or experimental groups (n = 5 or n = 7–10). Therapeutic agents [P2-1 peptide (1.0 or 2.0 mg/kg) or pCTS-L-neutralizing mAb2 (1.0, 2.0, or 4.0 mg/kg)] were administered i.p. daily, either prophylactically from–Day 2 or therapeutically from Day 6 post-α-CII challenge. Arthritis severity was scored daily via a clinical scoring system [0–4 per paw: 0 = normal; 1 = mild redness and swelling in a single joint type (ankle, wrist, or individual digit); 2 = moderate redness and swelling affecting two joint types; 3 = severe redness and swelling across all 3 joint types; 4 = maximal redness and swelling of the entire paw that obscured the joint definition].
On Day 0, the mice recei ved an i.p. injection of 2 mg of anti-collagen II m Ab cocktail (α-CII, Chondrex, Inc., Redmond, WA). […]

[2] = tested on: human PBMCs; assay: RNA-seq of HMGB1-stimulated PBMCs; type: cell-based
Description: Total RNA was isolated from human PBMCs (n = 6 biological replicates) stimulated with HMGB1 in the absence or presence of P2-1 (5.0 or 10.0 µg/ml) via the RNeasy Mini Kit (Qiagen, Germantown, MD, USA) according to the manufacturer’s instructions. cDNA libraries were prepared using the TruSeq RNA Library Prep Kit v2 (Illumina, San Diego, CA, USA) and sequenced on an Illumina NovaSeq 6000 platform to generate 100 bp paired-end reads. Gene counts were quantified via StringTie and DESeq2 for differential gene expression analysis. Volcano plots and heatmaps were generated via ggplot2 and pheatmap packages in R, respectively. Genes with an adjusted P-value < 0.05 and a |log2 fold change|> 1 were considered differentially expressed. […]
custom-synthesized (Gen Script, Piscataway, NJ, USA). P2 -1 was engineered to: i) increase solubility by removing a w ater-insoluble phenylalanine (F) at the C-terminal residue 70 and introducing a water-soluble threonine (T) at N-t erminal residue 54; and ii) reduce oxidative susceptibility by substituting methionine (M) with norleucine (Nle) and cysteine (C) with serine (S), respectively. The pCTS -L-neutralizing mAbs (mAb2) and TN-neutrali zing mAbs (mAb8 and m Ab9) were generated in BALB/c and C57BL/6 m ice as previously described .
RNA sequencing (RNA- Seq) and bioinformatics analysis
Total RNA was isolated from human PBMCs (n= 6 biological replicates) stimulated with HMGB1 in the absence o r pres ence o f P2-1 (5.0 or 10.0 µg/ml) via the RNeasy Mini Kit (Qiagen, Germantown, MD, USA) according to the manufacturer ’s instructions. RNA quantity and quality were assessed via a NanoDrop spectrophotometer, which requires A260/280 and A260/230 ratios to both be > 1.8. Samples meeting these criteria were then sent to two sequencing facilities, where RNA integrity was further confirmed via an Agilent Bioanalyzer. Only samples with an RNA integrity number of 8 or above were accepted for RNA sequencing. cDNA libraries were prepared using the TruSeq RNA Library Prep Kit v2 (Illumina, San Diego, CA, USA) and sequenced on an Illumina NovaSeq 6000 platform to generat e 100 bp paired-end reads. Our data filtering criteria adhered to industry best practices to ensure data quality.
First, raw sequencing reads underwent quality assessment with FastQC, followed by adapter and low-quality nucleotide trimming using Trimmomatic v.0.36. Subsequently, the high- quality reads wer e aligned to the Homo sapiens GRCh38 reference genome using the STAR aligner v.2.5.2b. Following alignment, PCR duplicates were identified and removed with Picard tools to mitigate amplification bias. Before differential expression an alysis, the gene count matrix was filtered to retain only genes with a count-per-million (CPM) > 1 in at least three samples (n = 3, representing our smallest experimental group). This rigorous procedure ensured that analysis was perfo rmed on a robust set of reliably expressed gen es. Finally, gene counts were quantified via StringTie and DESeq2 for differential gene expression analysis. Volcano

With `CCCC[C@H](NC(=O)[C@H](Cc1c[nH]cn1)NC(=O)[C@@H](NC(=O)[C@H](CCCCN)NC(=O)[C@@H](N)[C@@H](C)O)C(C)C)C(=O)N[C@@H](CCCCN)C(=O)N[C@@H](CO)C(=O)N[C@@H](Cc1ccccc1)C(=O)N[C@@H](CC(C)C)C(=O)N[C@@H](C)C(=O)N[C@@H](Cc1ccccc1)C(=O)N[C@@H](CCC(N)=O)C(=O)N[C@H](C(=O)N[C@@H](CCCCN)C(=O)N[C@H](C(=O)O)[C@@H](C)O)[C@@H](C)O` [P2-1] (HELM PEPTIDE1{T.K.V.H.[Nle].K.S.F.L.A.F.Q.T.K.T}$$$$V2.0; N-terminus and C-terminus assumed) as the compound, how does the “arthritis severity, in words” value ([1]; P2-1 1.0 or 2.0 mg/kg i.p. daily from Day 6 (therapeutic)) read?
Its value is “dose-dependently and significantly attenuated CAIA-induced arthritis severity”.

And the “arthritis severity, in words” value ([1]; P2-1 prophylactic, from Day -2, significant by Day 7)?
Its value is “significantly reduced arthritis severity”.

And the “Ctsl mRNA upregulation” value ([2]; HMGB1 + P2-1 5.0 µg/ml, human PBMCs)?
The value was 2.4 ± 0.1 -fold.

And the “HMGB1-induced transcriptional changes, in words” value ([2]; HMGB1 with P2-1, human PBMCs)?
Its value is “did not broadly reverse HMGB1-induced transcriptional changes in most genes”.
